Read-outs that look alike come from different tables or passages of the source.
Key:
Parameters in all cases: species or system AML cell lines (8); Primary HTS, single concentration about 10 uM, Cell Titer Glo viability; log10 luminescence, per cent inhibition relative to cycloheximide control
Settings in all cases: 72 h, relative to cycloheximide control, log10 luminescence, inhibitor
CHRF288-11 = test system: CHRF288-11
CMK = test system: CMK
CMS = test system: CMS
M07e = test system: M07e
ML-2 = test system: ML-2
MOLM-13 = test system: MOLM-13
MV4-11 = test system: MV4-11
U937 = test system: U937

Structure (SMILES) | CHRF288-11 %inh (CHRF288-11) | CMK %inh (CMK) | CMS %inh (CMS) | M07e %inh (M07e) | ML-2 %inh (ML-2) | MOLM-13 %inh (MOLM-13) | MV4-11 %inh (MV4-11) | U937 %inh (U937) | CHRF288-11 %inh (CHRF288-11; CHRF288-11 %inh, 10 µM) | CMK %inh (CMK; CMK %inh, 10 µM) | CMS %inh (CMS; CMS %inh, 10 µM) | M07e %inh (M07e; M07e %inh, 10 µM) | ML-2 %inh (ML-2; ML-2 %inh, 10 µM) | MOLM-13 %inh (MOLM-13; MOLM-13 %inh, 10 µM) | MV4-11 %inh (MV4-11; MV4-11 %inh, 10 µM) | U937 %inh (U937; U937 %inh, 10 µM)
CCCN(CCc1ccc(O)cc1)C(=O)[C@@H](C)c1cccc(C(=O)c2ccccc2)c1 [SJ000520373-2, NMDA298-1] | 9.808% | 9.519% | 3.128% | 11.25% | 1.661% | 13.67% | 11.33% | 10.97% |  |  |  |  |  |  |  | 
NC(=O)c1sc(-n2cnc3ccccc32)cc1OCc1ccccc1Br [SJ000573032-1, U22538/78/1] | -0.9565% | 4.627% | 2.746% | 3.083% | 42.25% | 1.858% | 0.1879% | 1.777% |  |  |  |  |  |  |  | 
COc1cc(C(C)C)c2c(c1)S(=O)(=O)N(COc1cc(=O)n3cccc(OCCN4CCCCC4)c3n1)C2=O [SJ000772427-1, SSR 69071] | -3.004% | 0.212% | 3.665% | 1.75% | -0.6502% | 1.802% | 4.165% | 2.526% |  |  |  |  |  |  |  | 
CCCCC[C@H](CC(=O)NO)C(=O)N[C@H](C(=O)N1CCC[C@H]1CO)C(C)C [SJ000285589-6, ACTINONIN] | 7.871% | 2.47% | 4.96% | 6.094% | 7.53% | 22.93% | 13.23% | 11.94% |  |  |  |  |  |  |  | 
Nc1c(C(=O)c2cccc(OCCN3CCOCC3)c2)cnn1-c1ccc(F)cc1 [SJ000581103-1] | -1.374% | 0.9343% | -1.582% | 6.806% | 2.31% | -0.4893% | 1.093% | 7.007% |  |  |  |  |  |  |  | 
COc1ccc(C2=C(N3CCc4ccccc43)C(=O)NC2=O)cc1 [SJ000573061-1, DH97836-162A1] | 16.97% | 1.284% | 1.472% | 1.612% | 4.148% | -1.299% | 5.926% | 9.443% |  |  |  |  |  |  |  | 
O=C1NC(=O)C(N2CCc3ccccc32)=C1c1ccc(Cl)cc1 [SJ000573268-1, DH97836-102A1] | 52.52% | 4.78% | -3.009% | -0.7324% | -0.2823% | 0.0382% | 95.01% | 0.6171% |  |  |  |  |  |  |  | 
[O-][S+]1CCN(Cc2ccc(-c3ccc4ncnc(Nc5ccc(OCc6ccccc6)c(F)c5)c4c3)o2)CC1 [SJ000573188-1, U14859/145/2] | 1.525% | -1.588% | -1.026% | -1.871% | -0.4978% | 2.781% | 1.608% | -0.5877% |  |  |  |  |  |  |  | 
Cn1cc(C2=C(c3cn(C)c4cc(C(=O)O)ccc34)C(=O)NC2=O)c2ccccc21 [SJ000580970-1] | 12.22% | 35.03% | -3.422% | -3.399% | -3.521% | 4.437% | 2.908% | -0.7361% |  |  |  |  |  |  |  | 
CC=CC1=C(C(=O)O)N2C(=O)[C@@H](NC(=O)[C@H](N)c3ccc(O)cc3)[C@H]2SC1 [SJ000565172-1, CEFPROZIL] |  |  |  |  |  |  |  |  | -2.763% | -2.483% | -1.599% | -0.1553% | -0.9482% | 3.181% | 3.254% | 0.9255%
CCOc1ccc2c(-c3ccnc(Nc4cc(OC)cc(C(F)(F)F)c4)n3)cnn2n1 [SJ000573233-1, U17838/82/6] | 13.25% | -2.522% | 0.7407% | 5.562% | 0.4459% | -2.068% | 0.1159% | 1.137% |  |  |  |  |  |  |  | 
CCOC(=O)C1=C(C)NC(C)=C(C(=O)OCC)C1c1ccccc1/C=C/C(=O)OC(C)(C)C [SJ000541098-3, LACIDIPINE] |  |  |  |  |  |  |  |  | -0.4968% | 6.472% | 2.32% | 5.059% | 5.833% | 4.748% | 8.929% | 2.874%
COC(=O)CCC(=O)OC1(C)C(=O)C=C2C=C(C3CC3)N(Cc3ccc(OC)cc3)C=C2C1=O (centres unmarked) [SJ000579817-1] | -0.5157% | 0.09613% | 1.001% | 4.577% | 0.04263% | 6.903% | 0.1893% | -0.6979% |  |  |  |  |  |  |  | 
C[C@H]1O[C@@H](O[C@H]2[C@@H](O)C[C@H](O[C@H]3[C@@H](O)C[C@H](O[C@H]4CC[C@@]5(C)[C@H](CC[C@@H]6[C@@H]5CC[C@]5(C)[C@@H](C7=CC(=O)OC7)CC[C@]65O)C4)O[C@@H]3C)O[C@@H]2C)C[C@H](O)[C@@H]1O [SJ000285233-4, DIGITOXIN] |  |  |  |  |  |  |  |  | 102.9% | 102% | 96.1% | 114.3% | 57.88% | 81.14% | 82.27% | 77.98%
C=CCNC(=O)c1cc([N+](=O)[O-])cc2c(=O)[nH]c(Nc3ccc(Cl)c(Cl)c3)nc12 [SJ000772422-1, AZ 10417808] | 0.7864% | -3.629% | 0.1501% | 3.044% | 0.702% | 0.5205% | 3.564% | -1.321% |  |  |  |  |  |  |  | 
Cn1cc(C2=C(Nc3ccccc3)C(=O)NC2=O)c2ccccc21 [SJ000580986-1] | -2.441% | -3.795% | 2.457% | -1.248% | 0.1627% | 1.455% | -0.9881% | -0.4269% |  |  |  |  |  |  |  | 

Reference: PMC6522510 (Nature Communications, 2019)
